Laboratory results from patent US5378706A, “Fused-thiazole derivatives active on the cholinergic system, and pharmaceutical compositions containing same” (Sanofi, priority 1987, dated 1995).

Experiments:
[1] = tested on: M1 central muscarinic cholinergic receptors; experiment: Antagonism of rotations induced by intrastriatal injection of pirenzepine in mice; type: in vivo, mice (Swiss, CD 1); details: for Pirenzepine antagonism ED50 i.p.: 15 minutes before intrastriatal pirenzepine 1 μg; for Pirenzepine antagonism ED50 p.o.: 30 minutes before intrastriatal pirenzepine 1 μg
Experimental: Pirenzepine (PZ) is a specific antagonist of the M1 central muscarinic cholinergic receptors. The intrastriatal injection of PZ into mice induces rotatory behavoir. The antagonism of this behavoir by the products according to the invention was studied.
The products according to the invention are administered either intraperitoneally (i.p.) or orally (p.o.) after solubilization in distilled water or suspension in a 5% solution of gum arabic. The control animals receive the pure solvent under the same conditions.
The animals used are female mice (Swiss, CD 1, Charles River, France) with a body weight of between 25 and 30 grams.
The pirenzepine is dissolved in a phosphate buffer and the pH of the solution is 6.
The test products or their solvents are administered in a volume of 0.4 ml per 20 g of body weight, either by i.p. injection or orally via an esophageal tube.
The number of contralateral rotations (rotations in the opposite direction to the side injected) was counted for three 2-minute periods after injection of the pirenzepine: 2nd to 4th, 8th to 10th and 13th to 15th minutes. Each treatment consists of 3 to 4 doses and 10 animals per dose. The total number of rotations and the percentage antagonism with respect to the control group are calculated for each treatment.

[2] = target: T1, M1 -type muscarinic cholinergic receptor (Rattus norvegicus, UniProt P08482); experiment: biochemical; type: binding; details: for IC50: rat hippocampus homogenate, 3H-PZ 1 nM, 2 hours at 4° C., pH 7.40, read-out: IC50 3H-PZ (M1); for ratio R of the IC50 values for the M1 and M2 receptors: selectivity, values correspond to IC50 M2 / IC50 M1
T1 sequence (P08482 1-460): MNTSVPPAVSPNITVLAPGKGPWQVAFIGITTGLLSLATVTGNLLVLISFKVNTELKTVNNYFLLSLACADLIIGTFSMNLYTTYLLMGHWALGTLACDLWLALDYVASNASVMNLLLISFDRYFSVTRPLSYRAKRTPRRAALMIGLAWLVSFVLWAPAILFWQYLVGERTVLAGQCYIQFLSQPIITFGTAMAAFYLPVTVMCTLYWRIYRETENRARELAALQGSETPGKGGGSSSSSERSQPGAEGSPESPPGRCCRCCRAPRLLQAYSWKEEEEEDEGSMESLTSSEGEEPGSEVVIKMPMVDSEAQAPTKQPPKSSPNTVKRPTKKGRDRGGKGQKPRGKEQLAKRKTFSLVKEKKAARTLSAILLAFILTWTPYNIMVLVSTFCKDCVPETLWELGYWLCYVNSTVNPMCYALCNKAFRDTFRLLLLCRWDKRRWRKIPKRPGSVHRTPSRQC
Experimental: The interaction of the molecules with the M1 -type muscarinic receptors was studied by in vitro measurement, on a rat hippocampus homogenate, of the displacement of tritiated pirenzepine from its specific binding sites. Aliquots (10 μl) of a 5% (w/v) rat hippocampus homogenate in an Na2 HPO4 buffer (50 mM, pH 7.40) are incubated for 2 hours at 4° C. in the presence of ^3 H-PZ (76 Ci/mmol; final concentration 1 nM) and increasing concentrations of the test product. The final volume is 2 ml. The reaction is stopped by centrifugation for 10 minutes at 50,000×g. After decantation and washing of the residues, the bound radioactivity is counted by liquid scintillation. The non-specific binding is determined in the presence of 10 μM atropine sulfate.

[3] = target: T2, M2 -type muscarinic cholinergic receptor (Cavia porcellus, UniProt H0VRN8); experiment: Affinity for the M2-type muscarinic cholinergic receptor, displacement of tritiated N-methylscopolamine (3H-NMS) on smooth guinea-pig ileum muscle homogenate; type: binding; details: guinea-pig ileum smooth muscle homogenate, 3H-NMS 0.3 nM, 20 minutes at 30° C., pH 7.5; read-out: IC50 3H-NMS (M2)
T2 construct: on a smooth guinea-pig ileum muscle homogenate; from tissue; host or cells: guinea-pig ileum smooth muscle homogenate
T2 sequence (H0VRN8 1-466): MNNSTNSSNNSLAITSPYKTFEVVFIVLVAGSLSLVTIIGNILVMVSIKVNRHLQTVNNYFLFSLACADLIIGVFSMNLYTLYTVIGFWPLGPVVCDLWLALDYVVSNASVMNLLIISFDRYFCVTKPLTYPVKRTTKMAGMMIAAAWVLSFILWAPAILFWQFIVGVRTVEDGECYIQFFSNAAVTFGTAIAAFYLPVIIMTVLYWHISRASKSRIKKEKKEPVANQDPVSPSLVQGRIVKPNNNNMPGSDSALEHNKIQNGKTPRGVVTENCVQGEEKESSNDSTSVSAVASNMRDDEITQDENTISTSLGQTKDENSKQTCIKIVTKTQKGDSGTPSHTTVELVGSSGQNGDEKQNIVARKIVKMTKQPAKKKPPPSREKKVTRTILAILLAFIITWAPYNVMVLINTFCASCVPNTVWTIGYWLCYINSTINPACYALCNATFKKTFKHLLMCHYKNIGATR
Experimental: The M1 -type receptors are concentrated in certain regions of the brain, such as the hippocampus, the cerebral cortex and the striatum, and also in the sympathetic ganglia. These binding sites can be selectively labeled with tritiated pirenzepine (^3 H-PZ). The M2 -type receptors predominate in the heart and the ileum and can be labeled with tritiated N-methyl-scopolamine (^3 H-NMS). The selectivity of the products of the invention with respect to the M1 and M2 sites was determined by studying their in vitro interaction with ^3 H-PZ and ^3 H-NMS firmly bound with a high affinity to rat hippocampus membranes and smooth guinea-pig ileum muscle, respectively.
The interaction with the M2 -type muscarinic receptors was studied by in vitro measurement, on a smooth guinea-pig ileum muscle homogenate, of the displacement of tritiated N-methylscopolamine from its specific binding sites. […] The final volume is 1 ml. The reaction is stopped by centrifugation for 5 minutes at 15,000×g. The non-specific binding is determined in the presence of 10 mM atropine sulfate.
The IC50 for ^3 H-PZ displacement represents the affinity for the M1 receptor; the IC50 for ^3 H-NMS displacement represents the affinity for the M2 receptor.

SMILES | Pirenzepine antagonism ED50 i.p. [1] [mg/kg] | IC50 [2] [µM] | ratio R of the IC50 values for the M1 and M2 receptors [2] | IC50 [3] [µM] | Pirenzepine antagonism ED50 p.o. [1] [mg/kg]
c1ccc(-c2cnc(NCCN3CCOCC3)s2)cc1 [SR 44285 A] | 3 | – | – | – | –
c1ccc2c(c1)CCCc1sc(NCCCN3CCOCC3)nc1-2 [SR 44392 A] | 3 | – | – | – | –
CCN(CC)CCNc1nc(C)cs1 [SR 44422 A] | – | 8.1 | 12 | 100 | –
CCN(CC)CCCNc1nc(-c2ccccc2)c(C)s1 [SR 44434 A] | – | 1.5 | 46 | 70 | –
CCN(CC)CCNc1nc(C)c(-c2ccccc2)s1 [SR 44436 A] | – | 1.7 | 29 | 50 | –
CCN(CC)CCNc1nc(-c2ccccc2)c(-c2ccccc2)s1 [SR 44437 A] | – | 0.43 | 7 | 3 | –
c1ccc(-c2cnc(NCCN3CCCC3)s2)cc1 [SR 44438 A] | – | 1 | 60 | 60 | –
CCCCN(CCCC)CCNc1nc(-c2ccc(F)cc2)cs1 [SR 44451 A] | – | 6 | 13 | 80 | –
COc1ccccc1-c1csc(NCCCN(C)C)n1 [SR 44465 A] | – | 2.6 | 15 | 40 | –
CCN(CC)CCNc1nc(C23CC4CC(CC(C4)C2)C3)cs1 [SR 44468 A] | – | 1.2 | 18 | 22 | –
CCN(CC)CCNc1nc(-c2ccc([N+](=O)[O-])cc2)cs1 [SR 44469 A] | – | 2.6 | 23 | 60 | –
Cc1nc(NCCN2CCCC2)sc1-c1ccccc1 [SR 44488 A] | – | 1.7 | 20 | 34 | –
Cc1nc(NCCN(C(C)C)C(C)C)sc1-c1ccccc1 [SR 44489 A] | – | 0.3 | 6 | 2 | –
c1ccc(-c2cnc(NCCN3CCCCC3)s2)cc1 [SR 44490 A] | – | 1.5 | 16 | 25 | –
CC(C)N(CCNc1ncc(-c2ccccc2)s1)C(C)C [SR 44491 A] | – | 0.8 | 10 | 8.5 | –
CCCCN(CCCC)CCNc1ncc(-c2ccccc2)s1 [SR 44492 A] | – | 3.6 | 8 | 28 | –
CCN(CC)CCCNc1nc(Cc2ccccc2)c(-c2ccccc2)s1 [SR 44515 A] | – | 0.2 | 17 | 3.4 | –
c1ccc2cc(-c3csc(NCCN4CCCCC4)n3)ccc2c1 [SR 44516 A] | – | 3.4 | 22 | 75 | –
CN(C)CCCNc1nc(C2CCCCC2)cs1 [SR 44574 A] | – | 0.2 | 120 | 24 | –
c1csc(-c2csc(NCCN3CCOCC3)n2)c1 [SR 44575 A] | – | 7 | > 14 | > 100 | –

SMILES | Pirenzepine antagonism ED50 i.p. [1] [mg/kg] | IC50 [2] [µM] | ratio R of the IC50 values for the M1 and M2 receptors [2] | IC50 [3] [µM] | Pirenzepine antagonism ED50 p.o. [1] [mg/kg]
Cc1sc(NCCCN(C)C)nc1-c1ccccc1 [SR 44769 A] | – | 2 | 15 | 30 | –
CN1CCCC1CCNc1nc(-c2ccc(F)cc2)cs1 (stereo not shown) [SR 44786 A] | – | 0.6 | 67 | 40 | –
CN(C)CCCNc1nc(-c2cccc([N+](=O)[O-])c2)cs1 [SR 44791 A] | – | 5 | 8 | 40 | –
Cc1cc(C)c(-c2csc(NCc3ccccn3)n2)c(C)c1 [SR 44813 A] | – | 6 | > 17 | > 100 | –
Cc1cc(C)c(-c2csc(NCCC3CCCN3C)n2)c(C)c1 (stereo not shown) [SR 44814 A] | – | 1.4 | 7 | – | 0.2
Cc1ccc(-c2csc(NCCCN(C)C)n2)cc1 [SR 44832 A] | – | 2.4 | > 42 | > 100 | –
Fc1ccc(-c2csc(NCc3ccncc3)n2)cc1 [SR 44840 A] | – | 0.6 | > 167 | > 100 | –
Cc1cc(C)c(-c2csc(NCc3ccncc3)n2)c(C)c1 [SR 44864 A] | – | 0.28 | > 360 | > 100 | –
NCCCNc1nc(-c2ccc(F)cc2)cs1 [SR 44886 A, 2-[(3-Aminopropyl)amino]-4-(4-fluorophenyl)thiazole] | – | 6.3 | 11 | 70 | –
Cc1cc(C)c(-c2csc(NCCCN(C(C)C)C(C)C)n2)c(C)c1 [SR 44887 A] | – | – | – | – | 0.3
c1ccc(-c2nc(NCc3cccnc3)sc2-c2ccccc2)cc1 [SR 44904 A] | – | 6 | > 17 | > 100 | –
Cc1cc(C)c(-c2csc(NCCc3ccccn3)n2)c(C)c1 [SR 44905 A] | – | 2.4 | 25 | 60 | –
c1ccc(-c2nc(NCCc3ccccn3)sc2-c2ccccc2)cc1 [SR 44906 A] | – | 2.4 | > 42 | > 100 | –
Cc1cc(C)c(-c2csc(NCCN(C(C)C)C(C)C)n2)c(C)c1 [SR 44908 A] | – | 0.13 | 31 | 4 | –
CC(C)N(CCCNc1nc(-c2ccc(F)cc2F)cs1)C(C)C [SR 44916 A] | – | 0.13 | 38 | 5 | –
Cc1cc(C)c(-c2csc(NCCCN)n2)c(C)c1 [SR 44949 A, 2-[(3-Aminopropyl)amino]-4-(2,4,6-trimethylphenyl)thiazole] | – | – | – | – | 10
CCc1nc(NCCCN(CC)CC)sc1-c1ccccc1 [SR 44963 A] | – | 0.12 | 50 | 6 | –
c1ccc(-c2cnc(NCCc3ccncc3)s2)cc1 [SR 44966 A] | – | 4.5 | 22 | 100 | –
CN(C)CCCNc1ncc(-c2ccccc2)s1 [SR 44967 A] | – | 1.8 | 22 | 40 | –
CC(C)(c1ccccc1)c1csc(NCc2cccnc2)n1 [SR 45106 A] | – | 3 | > 33 | > 100 | –
